Where two headings read alike, the source gives them in different places.
How the values were obtained:
[1] = Human hepatocyte intrinsic clearance assay; type: in vitro ADME; settings: human hepatocytes
Procedure, shortened: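 Pooled 10-donor cryopreserved human hepatocytes in suspension (0.25×10^6 cells in 0.25 mL) incubated with test compound at […], 37° C. Samples taken 0.5–120 min and quenched in acetonitrile, parent remaining measured by LC-MS/MS. CLint ([…]) derived from slope of ln % remaining vs time.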

[2] = Human liver microsomes (HLMs) intrinsic clearance assay; type: in vitro ADME; settings: for microsomal CLint at 1 µM: human, microsomes
[3] = molecular target: hERG (Homo sapiens (Human), UniProt Q12809); assay: hERG assay 1 (standard), SyncroPatch 384PE; type: cell-based; settings: CHO cells, room temperature, up to 40 uM
Sequence of hERG (Q12809 whole entry): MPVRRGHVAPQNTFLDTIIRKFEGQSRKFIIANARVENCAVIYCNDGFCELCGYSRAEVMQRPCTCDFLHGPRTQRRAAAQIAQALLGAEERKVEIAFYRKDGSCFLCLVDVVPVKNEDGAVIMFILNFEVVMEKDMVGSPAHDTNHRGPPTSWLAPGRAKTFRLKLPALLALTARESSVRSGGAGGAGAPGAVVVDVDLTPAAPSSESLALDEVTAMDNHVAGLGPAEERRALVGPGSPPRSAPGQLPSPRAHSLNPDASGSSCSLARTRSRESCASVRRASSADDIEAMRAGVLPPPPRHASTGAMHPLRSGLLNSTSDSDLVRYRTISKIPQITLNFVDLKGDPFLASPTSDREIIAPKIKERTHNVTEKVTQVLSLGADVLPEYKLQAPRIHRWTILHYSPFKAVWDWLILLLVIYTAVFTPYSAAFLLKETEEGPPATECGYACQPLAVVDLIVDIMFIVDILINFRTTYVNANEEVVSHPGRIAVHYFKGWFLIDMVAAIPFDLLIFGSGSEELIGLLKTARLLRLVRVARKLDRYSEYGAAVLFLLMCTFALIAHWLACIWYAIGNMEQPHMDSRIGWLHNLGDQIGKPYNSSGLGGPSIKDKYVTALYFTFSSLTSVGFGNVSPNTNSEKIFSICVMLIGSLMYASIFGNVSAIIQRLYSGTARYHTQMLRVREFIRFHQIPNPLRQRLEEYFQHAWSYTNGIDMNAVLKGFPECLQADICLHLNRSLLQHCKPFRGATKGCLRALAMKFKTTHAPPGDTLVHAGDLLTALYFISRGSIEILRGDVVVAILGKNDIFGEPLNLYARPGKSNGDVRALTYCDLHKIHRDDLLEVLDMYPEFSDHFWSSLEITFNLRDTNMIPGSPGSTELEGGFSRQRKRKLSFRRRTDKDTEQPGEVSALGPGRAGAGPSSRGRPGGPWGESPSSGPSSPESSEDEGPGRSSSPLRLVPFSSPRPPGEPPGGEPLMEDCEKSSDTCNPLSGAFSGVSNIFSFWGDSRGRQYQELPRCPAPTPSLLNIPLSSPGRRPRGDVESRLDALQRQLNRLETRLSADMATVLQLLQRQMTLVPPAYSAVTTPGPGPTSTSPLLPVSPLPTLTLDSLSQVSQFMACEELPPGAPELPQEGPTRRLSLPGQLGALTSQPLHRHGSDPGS
Procedure, shortened: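 Automated patch clamp on hERG-expressing CHO-K1 cells at room temperature, +60/−40 mV protocol every 15 s. Six-point cumulative concentrations 139 nM to 40 uM (0.33% DMSO final); IC50 from one-site fit of % inhibition. Wells required ≥30 MegaOhm seal, current >0.2 nA, Z prime >0.4.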

[4] = pH 7.4, 1 mg/mL HLM, NADPH, read-out: HLM CLint

HH CLint [1] | microsomal CLint at 1 µM ([2]; pH 7.4, HLM CLint) | SMILES | HLM CLint ([2]; 1 mg/mL HLM, NADPH) | IC50 [3] | microsomal CLint at 1 µM [2, 4]
2.6 μl/min/1E6 | 178 µL/min/mg | CC(C)N(C(=O)c1cc(F)ccc1-n1cc(C(=O)[C@H]2CCN(C[C@H]3CC[C@H](NS(C)(=O)=O)CC3)C2)c2ccncc21)C(C)C [Example 1, 5-Fluoro-N,N-diisopropyl-2-(3-((S)-1-(((1r,4S)-4-(methylsulfonamido)-cyclohexyl)methyl)pyrrolidine-3-carbonyl)-1H-pyrrolo[2,3-c]pyridin-1-yl)benzamide] | – | 9.9 µM | –
<1.0 μl/min/1E6 | 43 µL/min/mg | CC(C)N(C(=O)c1cc(F)ccc1-n1cc(C(=O)[C@H]2CCN(C(=O)[C@H]3N[C@@H]4CC[C@H]3C4)C2)c2ccncc21)C(C)C [Example 2, 2-(3-((S)-1-((1R,3S,4S)-2-Azabicyclo[2.2.1]heptane-3-carbonyl)pyrrolidine-3-carbonyl)-1H-pyrrolo[2,3-c]pyridin-1-yl)-5-fluoro-N,N-diisopropylbenzamide] | – | > 40 µM | –
<1.0 μl/min/1E6 | 41 µL/min/mg | CC(C)N(C(=O)c1cc(F)ccc1-n1cc(C(=O)[C@@H]2CCN(C(=O)[C@H]3N[C@@H]4CC[C@H]3C4)C2)c2ccncc21)C(C)C [Example 3, 2-(3-((R)-1-((1R,3S,4S)-2-Azabicyclo[2.2.1]heptane-3-carbonyl)pyrrolidine-3-carbonyl)-1H-pyrrolo[2,3-c]pyridin-1-yl)-5-fluoro-N,N-diisopropylbenzamide] | – | 38.8 µM | –
2.3 μl/min/1E6 | 171 µL/min/mg | CC(C)N(C(=O)c1cc(F)ccc1-n1cc(C(=O)[C@@H]2CCN(C[C@H]3CC[C@H](NS(C)(=O)=O)CC3)C2)c2ccncc21)C(C)C [Example 4, 5-Fluoro-N,N-diisopropyl-2-(3-((R)-1-(((1r,4R)-4-(methylsulfonamido)-cyclohexyl)methyl)pyrrolidine-3-carbonyl)-1H-pyrrolo[2,3-c]pyridin-1-yl)benzamide] | – | 6.3 µM | –
<1.0 μl/min/1E6 | 35 µL/min/mg | CC(C)N(C(=O)c1cc(F)ccc1-n1cc(C(=O)C2CN(C(=O)[C@H]3N[C@@H]4CC[C@H]3C4)C2)c2ccncc21)C(C)C [Example 5, 2-(3-(1-((1R,3S,4S)-2-Azabicyclo[2.2.1]heptane-3-carbonyl)azetidine-3-carbonyl)-1H-pyrrolo[2,3-c]pyridin-1-yl)-5-fluoro-N,N-diisopropylbenzamide] | – | > 40 µM | –
3.2 μl/min/1E6 | 148 µL/min/mg | CC(C)N(C(=O)c1cc(F)ccc1-n1cc(C(=O)C2CN(C(=O)[C@H]3N[C@H]4C[C@@H]3[C@@H](F)C4)C2)c2ccncc21)C(C)C [Example 7, 5-Fluoro-2-(3-(1-((1S,3S,4S,5S)-5-fluoro-2-azabicyclo[2.2.1]heptane-3-carbonyl)azetidine-3-carbonyl)-1H-pyrrolo[2,3-c]pyridin-1-yl)-N,N-diisopropylbenzamide] | – | > 40 µM | –
<2.2 μl/min/1E6 | 182 µL/min/mg | CC(C)c1ncccc1-c1cc(F)ccc1-n1cc(C(=O)C2CN(C(=O)[C@H]3N[C@@H]4CC[C@H]3C4)C2)c2ccncc21 [Example 10, (1-((1R,3S,4S)-2-Azabicyclo[2.2.1]heptane-3-carbonyl)azetidin-3-yl)(1-(4-fluoro-2-(2-isopropylpyridin-3-yl)phenyl)-1H-pyrrolo[2,3-c]pyridin-3-yl)methanone] | – | > 40 µM | –
<1.0 μl/min/1E6 | > 294 µL/min/mg | CC(C)c1cnccc1-c1cc(F)ccc1-n1cc(C(=O)C2CN(C(=O)[C@H]3N[C@@H]4CC[C@H]3C4)C2)c2ccncc21.O=CO [Example 11, (1-((1R,3S,4S)-2-Azabicyclo[2.2.1]heptane-3-carbonyl)azetidin-3-yl)(1-(4-fluoro-2-(3-isopropylpyridin-4-yl)phenyl)-1H-pyrrolo[2,3-c]pyridin-3-yl)methanone 1·formic acid] | – | > 40 µM | –
3.9 μl/min/1E6 | 216 µL/min/mg | CC(C)c1ncsc1-c1cc(F)ccc1-n1cc(C(=O)C2CN(C(=O)[C@H]3N[C@@H]4CC[C@H]3C4)C2)c2ccncc21.O=CO [Example 12, (1-((1R,3S,4S)-2-Azabicyclo[2.2.1]heptane-3-carbonyl)azetidin-3-yl)(1-(4-fluoro-2-(4-isopropylthiazol-5-yl)phenyl)-1H-pyrrolo[2,3-c]pyridin-3-yl)methanone 1·formic acid] | – | > 40 µM | –
2.9 μl/min/1E6 | 132 µL/min/mg | CC(C)N(C(=O)c1cc(F)ccc1-n1cc(C(=O)C2CN(C(=O)[C@H]3N[C@@H]4CC[C@H]3C4)C2)c2ccnc(F)c21)C(C)C [Example 15, 2-(3-(1-((1R,3S,4S)-2-Azabicyclo[2.2.1]heptane-3-carbonyl)azetidine-3-carbonyl)-7-fluoro-1H-pyrrolo[2,3-c]pyridin-1-yl)-5-fluoro-N,N-diisopropylbenzamide] | – | 24.9 µM | –
<1.0 μl/min/1E6 | 27 µL/min/mg | CC(C)N(C(=O)c1cc(F)ccc1-n1cc(C(=O)C2CCN(C(=O)[C@H]3N[C@@H]4CC[C@H]3C4)CC2)c2ccncc21)C(C)C [Example 16, 2-(3-(1-((1R,3S,4S)-2-Azabicyclo[2.2.1]heptane-3-carbonyl)piperidine-4-carbonyl)-1H-pyrrolo[2,3-c]pyridin-1-yl)-5-fluoro-N,N-diisopropylbenzamide] | – | > 40 µM | –
1.2 μl/min/1E6 | 52 µL/min/mg | CC(C)N(C(=O)c1cc(F)ccc1-n1cc(C(=O)C2CCN(C[C@H]3CC[C@H](NS(C)(=O)=O)CC3)CC2)c2ccncc21)C(C)C [Example 17, 5-Fluoro-N,N-diisopropyl-2-(3-(1-(((1r,4r)-4-(methylsulfonamido)cyclohexyl)-methyl)piperidine-4-carbonyl)-1H-pyrrolo[2,3-c]pyridin-1-yl)benzamide] | – | 9.1 µM | –
1.6 μl/min/1E6 | 172 µL/min/mg | C=C1C[C@@H]2CC[C@H]1[C@@H](C(=O)N1CCC(C(=O)c3cn(-c4ccc(F)cc4C(=O)N(C(C)C)C(C)C)c4cnccc34)CC1)N2 [Example 18, 5-Fluoro-N,N-diisopropyl-2-(3-(1-((1S,3S,4R)-5-methylene-2-azabicyclo[2.2.2]-octane-3-carbonyl)piperidine-4-carbonyl)-1H-pyrrolo[2,3-c]pyridin-1-yl)benzamide] | – | > 40 µM | –
3.6 μl/min/1E6 | 56 µL/min/mg | CC(C)N(C(=O)c1cc(F)ccc1-n1cc(C(=O)C2CCN(C(=O)[C@H]3NC[C@@H]4C[C@@H]43)CC2)c2ccncc21)C(C)C [Example 19, 2-(3-(1-((1S,2S,5R)-3-Azabicyclo[3.1.0]hexane-2-carbonyl)piperidine-4-carbonyl)-1H-pyrrolo[2,3-c]pyridin-1-yl)-5-fluoro-N,N-diisopropylbenzamide] | – | > 40 µM | –
<1.0 μl/min/1E6 | 27 µL/min/mg | CC(C)N(C(=O)c1cc(F)ccc1-n1cc(C(=O)C2CCN(C(=O)[C@H]3NC4CCC3CC4)CC2)c2ccncc21)C(C)C [Example 20, (S)-2-(3-(1-(2-Azabicyclo[2.2.2]octane-3-carbonyl)piperidine-4-carbonyl)-1H-pyrrolo[2,3-c]pyridin-1-yl)-5-fluoro-N,N-diisopropylbenzamide] | – | > 40 µM | –
2.0 μl/min/1E6 | 197 µL/min/mg | CC(C)N(C(=O)c1cc(F)ccc1-n1cc(C(=O)C2CCN(C(=O)[C@H]3NC[C@@H]4CCC[C@@H]43)CC2)c2ccncc21)C(C)C [Example 21, 5-Fluoro-N,N-diisopropyl-2-(3-(1-((1S,3αR,6αS)-octahydrocyclopenta[c]pyrrole-1-carbonyl)piperidine-4-carbonyl)-1H-pyrrolo[2,3-c]pyridin-1-yl)benzamide] | – | > 40 µM | –
<1.7 μl/min/1E6 | 91 µL/min/mg | CC(C)N(C(=O)c1cc(F)ccc1-n1cc(C(=O)C2CCN(C(=O)[C@H]3N[C@H]4C[C@@H]3[C@@H](F)C4)CC2)c2ccncc21)C(C)C [Example 22, 5-Fluoro-2-(3-(1-((1S,3S,4S,5S)-5-fluoro-2-azabicyclo[2.2.1]heptane-3-carbonyl)piperidine-4-carbonyl)-1H-pyrrolo[2,3-c]pyridin-1-yl)-N,N-diisopropylbenzamide] | – | > 40 µM | –

SMILES | HH CLint [1] | microsomal CLint at 1 µM ([2]; pH 7.4, HLM CLint) | HLM CLint ([2]; 1 mg/mL HLM, NADPH) | IC50 [3] | microsomal CLint at 1 µM [2, 4]
Cc1c(C(=O)C2CCN(C(=O)[C@@H]3CCC4(CC4)N3)CC2)c2ccncc2n1-c1ccc(F)cc1C(=O)N1[C@H](C)COC[C@H]1C (single isomer, unassigned) [Example 58-2] | 1.9 μl/min/1E6 | – | 85 µL/min/mg | > 40 µM | –
CC(C)N(C(=O)c1cc(F)ccc1-n1cc(C(=O)C2CCN(C(=O)[C@@H]3CCC4(CC4)N3)CC2)c2ccncc21)C(C)C [Example 24, (S)-2-(3-(1-(4-Azaspiro[2.4]heptane-5-carbonyl)piperidine-4-carbonyl)-1H-pyrrolo[2,3-c]pyridin-1-yl)-5-fluoro-N,N-diisopropylbenzamide] | 4.1 μl/min/1E6 | – | – | 38.3 µM | 145 µL/min/mg
CC(C)N(C(=O)c1cc(F)ccc1-n1cc(C(=O)C2CCN(C(=O)[C@@H]3CC4(CC4)CN3)CC2)c2ccncc21)C(C)C [Example 26, (S)-2-(3-(1-(5-Azaspiro[2.4]heptane-6-carbonyl)piperidine-4-carbonyl)-1H-pyrrolo[2,3-c]pyridin-1-yl)-5-fluoro-N,N-diisopropylbenzamide] | <1.0 μl/min/1E6 | – | – | > 40 µM | 51 µL/min/mg

Source: US20240335431A1, “1-H-PYRROLO[2,3-c]PYRIDINE COMPOUNDS” (Acerta Pharma B.V., priority 2023, published 2024)
